Data reported in patent US20240109917A1 (ACTELION PHARMACEUTICALS LTD, priority 2020, published 2024).
Like-named read-outs stand apart in the source and are kept apart here.

Columns and labels:
[1] = target: His6-TEV-PDGFRβ (557-1016) (Homo sapiens (Human), UniProt P09619); assay: PDGFRβ HTRF Assay; assay type: biochemical; conditions: read-out: PDGFR HTRF IC50
How it was run: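 Human PDGFRβ (557-1016) pre-incubated with compound for 30 min at RT in pH 7.5 HEPES/MgCl2/EGTA/Brij-35/DTT buffer. Reaction started with ATP and TK-biotin peptide, run 3 h at RT, then quenched with EDTA-containing Eu-cryptate antibody/streptavidin-XL665. HTRF 665/620 nm ratio read after 60 min; percent inhibition relative to DMSO and 10 μM imatinib controls.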

[2] = target: Tb-labeled inactive PDGFRβ (Homo sapiens (Human), UniProt P09619); assay: PDGFRβ LanthaScreen Assay; assay type: binding; conditions: read-out: PDGFR Lantha IC50
Chain of Tb-labeled inactive PDGFRβ (P09619 33-1106): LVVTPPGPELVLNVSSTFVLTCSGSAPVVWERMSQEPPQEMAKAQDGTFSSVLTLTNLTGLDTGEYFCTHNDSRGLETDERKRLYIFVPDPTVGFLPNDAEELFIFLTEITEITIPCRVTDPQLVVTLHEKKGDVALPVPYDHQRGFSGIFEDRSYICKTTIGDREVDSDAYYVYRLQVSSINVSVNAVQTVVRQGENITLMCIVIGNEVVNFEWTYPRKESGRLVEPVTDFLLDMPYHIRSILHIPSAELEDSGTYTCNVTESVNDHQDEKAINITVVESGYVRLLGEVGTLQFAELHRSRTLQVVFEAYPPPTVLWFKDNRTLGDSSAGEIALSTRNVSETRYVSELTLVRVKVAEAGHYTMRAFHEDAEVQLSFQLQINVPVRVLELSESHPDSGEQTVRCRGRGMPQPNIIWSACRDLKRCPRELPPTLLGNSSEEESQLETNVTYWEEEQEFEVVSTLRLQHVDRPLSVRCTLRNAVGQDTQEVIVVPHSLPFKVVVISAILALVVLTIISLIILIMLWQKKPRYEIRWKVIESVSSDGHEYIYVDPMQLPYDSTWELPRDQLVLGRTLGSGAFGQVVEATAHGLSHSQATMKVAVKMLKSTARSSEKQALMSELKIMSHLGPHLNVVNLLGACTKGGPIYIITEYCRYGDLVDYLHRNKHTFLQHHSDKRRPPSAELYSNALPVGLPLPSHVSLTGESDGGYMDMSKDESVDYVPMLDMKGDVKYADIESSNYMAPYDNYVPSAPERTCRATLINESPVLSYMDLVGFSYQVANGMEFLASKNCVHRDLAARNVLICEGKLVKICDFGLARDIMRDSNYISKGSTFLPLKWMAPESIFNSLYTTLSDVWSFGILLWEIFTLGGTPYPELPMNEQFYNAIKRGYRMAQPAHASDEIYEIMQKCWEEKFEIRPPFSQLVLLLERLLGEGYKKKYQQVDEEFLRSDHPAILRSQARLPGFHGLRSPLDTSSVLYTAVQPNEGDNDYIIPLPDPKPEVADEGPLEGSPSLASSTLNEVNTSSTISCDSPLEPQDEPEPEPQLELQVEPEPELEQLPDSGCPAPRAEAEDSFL

PDGFRβ = PDGFRβ (Rattus norvegicus (Rat), UniProt Q05030); assay: PDGFRβ Cellular Assay (PDGFRb P-Y751 HTRF in A10 cells stimulated with PDGF-BB); assay type: cell-based
Chain of PDGFRβ (Q05030 32-1097): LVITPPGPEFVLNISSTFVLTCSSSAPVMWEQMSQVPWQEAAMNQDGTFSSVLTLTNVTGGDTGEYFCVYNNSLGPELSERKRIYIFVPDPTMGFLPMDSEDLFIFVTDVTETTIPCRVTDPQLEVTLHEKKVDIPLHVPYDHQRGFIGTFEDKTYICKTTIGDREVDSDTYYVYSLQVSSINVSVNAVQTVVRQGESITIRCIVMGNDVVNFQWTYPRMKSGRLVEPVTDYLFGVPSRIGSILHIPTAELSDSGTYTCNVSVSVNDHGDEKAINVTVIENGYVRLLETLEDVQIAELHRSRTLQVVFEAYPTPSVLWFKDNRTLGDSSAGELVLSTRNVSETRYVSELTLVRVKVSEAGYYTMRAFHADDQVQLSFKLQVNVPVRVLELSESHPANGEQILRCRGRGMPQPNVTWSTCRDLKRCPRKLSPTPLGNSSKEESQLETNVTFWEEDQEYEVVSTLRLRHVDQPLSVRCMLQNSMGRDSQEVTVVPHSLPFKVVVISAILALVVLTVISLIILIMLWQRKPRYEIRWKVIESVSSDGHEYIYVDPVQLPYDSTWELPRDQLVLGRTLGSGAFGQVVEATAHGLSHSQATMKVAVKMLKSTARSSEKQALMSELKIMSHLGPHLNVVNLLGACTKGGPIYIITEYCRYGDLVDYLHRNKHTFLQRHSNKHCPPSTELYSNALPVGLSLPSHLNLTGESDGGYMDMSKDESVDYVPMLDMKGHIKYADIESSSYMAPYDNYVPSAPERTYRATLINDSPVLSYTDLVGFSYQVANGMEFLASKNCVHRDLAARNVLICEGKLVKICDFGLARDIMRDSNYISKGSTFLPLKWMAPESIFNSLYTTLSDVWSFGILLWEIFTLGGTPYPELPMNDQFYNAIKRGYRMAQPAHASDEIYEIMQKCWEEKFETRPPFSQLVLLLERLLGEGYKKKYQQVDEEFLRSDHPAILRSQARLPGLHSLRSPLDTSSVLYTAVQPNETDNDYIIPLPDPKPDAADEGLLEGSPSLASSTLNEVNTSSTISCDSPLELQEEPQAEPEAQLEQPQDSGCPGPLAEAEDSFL
How it was run: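 Rat A10 cells, plated overnight, were treated with compound for 3 hours, then stimulated with PDGF-BB (working stock 100 ng/mL in 10% FBS medium). After lysis, PDGFRβ P-Y751 was detected by HTRF.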

Chain of His6-TEV-PDGFRβ (557-1016) (P09619 557-1016): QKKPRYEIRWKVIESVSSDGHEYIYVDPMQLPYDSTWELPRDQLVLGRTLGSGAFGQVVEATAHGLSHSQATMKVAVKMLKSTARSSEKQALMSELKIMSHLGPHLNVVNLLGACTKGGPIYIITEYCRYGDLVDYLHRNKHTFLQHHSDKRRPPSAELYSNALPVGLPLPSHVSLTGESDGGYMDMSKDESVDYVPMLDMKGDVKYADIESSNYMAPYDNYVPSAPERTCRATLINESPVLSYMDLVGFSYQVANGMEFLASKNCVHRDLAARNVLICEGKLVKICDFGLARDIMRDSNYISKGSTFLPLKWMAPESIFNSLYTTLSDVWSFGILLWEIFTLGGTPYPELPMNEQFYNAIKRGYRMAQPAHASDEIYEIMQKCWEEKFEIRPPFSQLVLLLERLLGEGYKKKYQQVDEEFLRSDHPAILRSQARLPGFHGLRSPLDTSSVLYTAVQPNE

| Structure (SMILES) | IC50 [1] [nM] | IC50 [2] [nM] | IC50 (PDGFRβ; PDGFR Cellular IC50) [nM] | IC50 (PDGFRβ; read-out: PDGFR Cellular IC50) [nM] |
| --- | --- | --- | --- | --- |
| Cc1ncc(NC(=O)CN2C[C@@H](C)O[C@H](C)C2)cc1NC(=O)c1cnn2cc(-c3cnn(CCS(C)(=O)=O)c3)sc12 (relative stereo) [Example 432, N-(5-(2-(trans-2,6-dimethylmorpholino)acetamido)-2-methylpyridin-3-yl)-2-(1-(2-(methylsulfonyl)ethyl)-1H-pyrazol-4-yl)pyrazolo[5,1-b]thiazole-7-carboxamide] | 1.1 | 9.2 | 420 | – |
| Cc1ncc(NC(=O)CN2C[C@@H](C)O[C@H](C)C2)cc1NC(=O)c1cnn2cc(-c3cnn(C)c3C)sc12 (relative stereo) [Example 433, 2-(1,5-Dimethyl-1H-pyrazol-4-yl)-N-(5-(2-(trans-2,6-dimethylmorpholino)acetamido)-2-methylpyridin-3-yl)pyrazolo[5,1-b]thiazole-7-carboxamide] | 0.5 | 4 | – | 5.1 |
| Cc1ncc(NC(=O)CN2CCCC[C@@H]2C)cc1NC(=O)c1cnn2cc(-c3cnn(CCO)c3)sc12 [Example 34, (S)-2-(1-(2-hydroxyethyl)-1H-pyrazol-4-yl)-N-(2-methyl-5-(2-(2-methyl-piperidin-1-yl)acetamido)pyridin-3-yl)pyrazolo[5,1-b]thiazole-7-carboxamide] | 1.7 | 13.4 | 30.3 | – |
| Cc1cc(C(=O)NCCN2CCCC23CCC3)sc1NC(=O)c1cnn2cc(-c3cnn(C)c3)sc12 [Example 35, N-(5-((2-(5-azaspiro[3.4]octan-5-yl)ethyl)carbamoyl)-3-methylthiophen-2-yl)-2-(1-methyl-1H-pyrazol-4-yl)pyrazolo[5,1-b]thiazole-7-carboxamide] | 1.6 | 71.4 | – | 33.6 |
| Cc1cc(C(=O)NCCN2CCCC2(C)C)sc1NC(=O)c1cnn2cc(-c3cccnc3)sc12 [Example 36, N-(5-((2-(2,2-dimethylpyrrolidin-1-yl)ethyl)carbamoyl)-3-methylthiophen-2-yl)-2-(pyridin-3-yl)pyrazolo[5,1-b]thiazole-7-carboxamide] | 0.5 | 19.3 | – | 9 |
| Cc1cc(C(=O)NCCN2CCCC23CC3)sc1NC(=O)c1cnn2cc(-c3cnn(C)c3)sc12 [Example 37, N-(5-((2-(4-azaspiro[2.4]heptan-4-yl)ethyl)carbamoyl)-3-methylthiophen-2-yl)-2-(1-methyl-1H-pyrazol-4-yl)pyrazolo[5,1-b]thiazole-7-carboxamide] | 22.8 | 892 | – | 11.2 |
| Cc1ncc(NC(=O)NCCN2CCCC2(C)C)cc1NC(=O)c1cnn2cc(-c3cnn(C)c3)sc12 [Example 38, N-(5-(3-(2-(2,2-dimethylpyrrolidin-1-yl)ethyl)ureido)-2-methyl-pyridin-3-yl)-2-(1-methyl-1H-pyrazol-4-yl)pyrazolo[5,1-b]thiazole-7-carboxamide] | 1.8 | 33.5 | – | 3000 |
| Cc1ncc(NC(=O)CN2CC(C)(C)C2)cc1NC(=O)c1cnn2cc(-c3cnn4c3OCCC4)sc12 [Example 39, 2-(6,7-dihydro-5H-pyrazolo[5,1-b][1,3]oxazin-3-yl)-N-(5-(2-(3,3-dimethylazetidin-1-yl)acetamido)-2-methylpyridin-3-yl)pyrazolo[5,1-b]thiazole-7-carboxamide] | 0.3 | 1.9 | – | 2 |
| COc1ccncc1-c1cn2ncc(C(=O)Nc3cc(NC(=O)CN4CC(C)(C)C4)cnc3C)c2s1 [Example 40, N-(5-(2-(3,3-dimethylazetidin-1-yl)acetamido)-2-methylpyridin-3-yl)-2-(4-methoxypyridin-3-yl)pyrazolo[5,1-b]thiazole-7-carboxamide] | 0.27 | 1.7 | – | 2 |
| COCCn1cc(-c2cn3ncc(C(=O)Nc4cc(NC(=O)CCN5CCCC5(C)C)cnc4C)c3s2)cn1 [Example 41, N-(5-(3-(2,2-dimethylpyrrolidin-1-yl)propanamido)-2-methylpyridin-3-yl)-2-(1-(2-methoxyethyl)-1H-pyrazol-4-yl)pyrazolo[5,1-b]thiazole-7-carboxamide] | 0.43 | 4.7 | – | 10 |
| Cc1ncc(NC(=O)CN2CCC23CCC3)cc1NC(=O)c1cnn2cc(-c3cnn4c3OCCC4)sc12 [Example 408, N-(5-(2-(1-azaspiro[3.3]heptan-1-yl)acetamido)-2-methylpyridin-3-yl)-2-(6,7-dihydro-5H-pyrazolo[5,1-b][1,3]oxazin-3-yl)pyrazolo[5,1-b]thiazole-7-carboxamide] | 0.2 | 1.8 | – | 1.7 |
| Cc1ncc(NC(=O)CN2CC(C)(C)C2)cc1NC(=O)c1cnn2cc(-c3cnn4c3CCC4)sc12 [Example 409, 2-(5,6-dihydro-4H-pyrrolo[1,2-b]pyrazol-3-yl)-N-(5-(2-(3,3-dimethylazetidin-1-yl)acetamido)-2-methylpyridin-3-yl)pyrazolo[5,1-b]thiazole-7-carboxamide] | 0.2 | 1.3 | – | 1.6 |
| Cc1ncc(NC(=O)CN2CC(C)(C)C2)cc1NC(=O)c1cnn2cc(-c3ccnnc3C)sc12 [Example 410, N-(5-(2-(3,3-dimethylazetidin-1-yl)acetamido)-2-methylpyridin-3-yl)-2-(3-methylpyridazin-4-yl)pyrazolo[5,1-b]thiazole-7-carboxamide] | 6.2 | 190 | 270 | – |
| Cc1ncc(NC(=O)CN2CC3(COC3)C2)cc1NC(=O)c1cnn2cc(-c3cnn4c3OCCC4)sc12 [Example 411, N-(5-(2-(2-oxa-6-azaspiro[3.3]heptan-6-yl)acetamido)-2-methylpyridin-3-yl)-2-(6,7-dihydro-5H-pyrazolo[5,1-b][1,3]oxazin-3-yl)pyrazolo[5,1-b]thiazole-7-carboxamide] | 0.5 | 6.6 | – | 114 |
| Cc1ncc(NC(=O)CN2CCC2)cc1NC(=O)c1cnn2cc(-c3cnn4c3OCCC4)sc12 [Example 412, N-(5-(2-(azetidin-1-yl)acetamido)-2-methylpyridin-3-yl)-2-(6,7-dihydro-5H-pyrazolo[5,1-b][1,3]oxazin-3-yl)pyrazolo[5,1-b]thiazole-7-carboxamide] | 1.4 | 34.6 | – | 77.2 |
| Cc1ncc(NC(=O)CN2CCC[C@@H]2C)cc1NC(=O)c1cnn2cc(-c3cnn4c3OCCC4)sc12 [Example 413, (S)-2-(6,7-dihydro-5H-pyrazolo[5,1-b][1,3]oxazin-3-yl)-N-(2-methyl-5-(2-(2-methylpyrrolidin-1-yl)acetamido)pyridin-3-yl)pyrazolo[5,1-b]thiazole-7-carboxamide] | 0.3 | 2.9 | – | 3.4 |
| Cc1ncc(NC(=O)CNCC(C)C)cc1NC(=O)c1cnn2cc(-c3cnn4c3OCCC4)sc12 [Example 414, 2-(6,7-dihydro-5H-pyrazolo[5,1-b][1,3]oxazin-3-yl)-N-(5-(2-(isobutylamino)acetamido)-2-methylpyridin-3-yl)pyrazolo[5,1-b]thiazole-7-carboxamide] | 0.4 | 3.3 | – | 6.2 |
| Cc1ncc(NC(=O)CN2CC(C)(C)C2)cc1NC(=O)c1cnn2cc(-c3cnc4n3CCOC4)sc12 [Example 415, 2-(5,6-dihydro-8H-imidazo[2,1-c][1,4]oxazin-3-yl)-N-(5-(2-(3,3-dimethylazetidin-1-yl)acetamido)-2-methylpyridin-3-yl)pyrazolo[5,1-b]thiazole-7-carboxamide] | 0.5 | 6.6 | – | 41.5 |
| Cc1ncc(NC(=O)CN2CCC[C@@H]2C)cc1NC(=O)c1cnn2cc(-c3cnn4c3CCC4)sc12 [Example 416, (S)-2-(5,6-dihydro-4H-pyrrolo[1,2-b]pyrazol-3-yl)-N-(2-methyl-5-(2-(2-methylpyrrolidin-1-yl)acetamido)pyridin-3-yl)pyrazolo[5,1-b]thiazole-7-carboxamide] | 0.2 | 1.6 | – | 2.3 |
| Cc1ncc(NC(=O)CN2CCCC23CCC3)cc1NC(=O)c1cnn2cc(-c3cnn4c3COCC4)sc12 [Example 417, N-(5-(2-(5-azaspiro[3.4]octan-5-yl)acetamido)-2-methylpyridin-3-yl)-2-(6,7-dihydro-4H-pyrazolo[5,1-c][1,4]oxazin-3-yl)pyrazolo[5,1-b]thiazole-7-carboxamide] | 0.4 | 2.8 | 2.6 | – |
| Cc1ncc(NC(=O)CN2CCCC23CCC3)cc1NC(=O)c1cnn2cc(-c3cnc4n3CCOC4)sc12 [Example 418, N-(5-(2-(5-azaspiro[3.4]octan-5-yl)acetamido)-2-methylpyridin-3-yl)-2-(5,6-dihydro-8H-imidazo[2,1-c][1,4]oxazin-3-yl)pyrazolo[5,1-b]thiazole-7-carboxamide] | 0.5 | 2.9 | – | 6.5 |
| Cc1ncc(NC(=O)CN2CCCCC2)cc1NC(=O)c1cnn2cc(-c3cnn4c3OCCC4)sc12 [Example 419, 2-(6,7-dihydro-5H-pyrazolo[5,1-b][1,3]oxazin-3-yl)-N-(2-methyl-5-(2-(piperidin-1-yl)acetamido)pyridin-3-yl)pyrazolo[5,1-b]thiazole-7-carboxamide] | 0.3 | 2.8 | – | 2.6 |
